Results taken from paper PMC12396409, “Screening and hit evaluation of a microbial metabolite library against the pathogenic Plasmodium falciparum and Toxoplasma gondii parasites” (International Journal for Parasitology: Drugs and Drug …, 2025).
Where two headings read alike, the source gives them in different places. *1 amine or outer side, *2 acyl side, *3 side chain or, on linkers, in order; H or OH if unused. Where a SMILES comes first, the peptide text is derived from it. Bridges are numbered along the chain shown (N, C = ends). [ ]: non-standard residue; d: D form. The star is where a group is joined. Orn(4R-OH,5R-OH) = O=C([C@H](C[C@@H](O)[C@@H](O)N[*:3])N[*:1])[*:2]; Tetradecanoyl(10R,12S-Me2) = CC[C@H](C)C[C@H](C)CCCCCCCCC(=O)*; hTyr(3S-OH,4S-OH) = N[C@H](C(=O)O)[C@H](O)[C@@H](O)c1ccc(O)cc1; Gln(3R-OH) = NC(=O)C[C@@H](O)[C@H](N)C(=O)O; Pro(3S-OH) = O=C(O)[C@H]1NCC[C@@H]1O; Hyp = O=C(O)[C@@H]1C[C@@H](O)CN1

What was measured:
[1] = system: P. falciparum 3D7 parasites; assay: P. falciparum growth inhibition assay, 2-cycle (120 h treatment), delayed-death screen and dose-response; type: cell-based, Plasmodium falciparum
[2] = system: P. falciparum 3D7 parasites; assay: P. falciparum growth inhibition assay, 1-cycle (72 h treatment), SYBR DNA staining (library screen at 2 μg/mL and dose-response); type: cell-based, Plasmodium falciparum
[3] = system: T. gondii RH strain (RH-Tub-eYFP) tachyzoites; assay: microbe, parasite or virus in culture; type: cell-based, Toxoplasma gondii; conditions: 72 h, 72 h; for percent parasite growth at 2 µg/mL / Tg_72h_%Growth_Rep1 / Tg_72h_%Growth_Rep2: % growth; for Mean / Replicate 1 / Replicate 2: 2 μg/mL; for Mean: mean of both replicates, growth (% of control); for Replicate 1 / Replicate 2: values are growth (% of control)
[4] = Plasmodium falciparum, 3D7, library screen at 2 μg/mL, 120 h, % growth, replicate 1, read-out: Pf_120h_%Growth_Rep1
[5] = Plasmodium falciparum, 3D7, library screen at 2 μg/mL, 120 h, % growth, replicate 2, read-out: Pf_120h_%Growth_Rep2
[6] = Plasmodium falciparum, 3D7, library screen at 2 μg/mL, 72 h, % growth, replicate 1, read-out: Pf_72h_%Growth_Rep1
[7] = Plasmodium falciparum, 3D7, library screen at 2 μg/mL, 72 h, % growth, replicate 2, read-out: Pf_72h_%Growth_Rep2
[8] = Toxoplasma gondii, library screen at 2 μg/mL, replicate 1, read-out: Tg_72h_%Growth_Rep1
[9] = Toxoplasma gondii, library screen at 2 μg/mL, replicate 2, read-out: Tg_72h_%Growth_Rep2
[10] = library screen at 2 μg/mL, 120 h, % growth, replicate 1
[11] = library screen at 2 μg/mL, 120 h, % growth, replicate 2
[12] = library screen at 2 μg/mL, 72 h, % growth, replicate 1
[13] = library screen at 2 μg/mL, 72 h, % growth, replicate 2
[14] = library screen at 2 μg/mL, replicate 1
[15] = library screen at 2 μg/mL, replicate 2
[16] = Plasmodium falciparum, 3D7, 120 h, P. falciparum, 2 μg/mL, 120 h; read-out: 2) Growth (%) at 120 h
[17] = Plasmodium falciparum, 3D7, 72 h, P. falciparum, 2 μg/mL, 72 h; read-out: 1) Growth (%) at 72 h
[18] = P. falciparum, 120 h, parasite screen 2 μg/mL, % growth, replicate 1
[19] = P. falciparum, 120 h, parasite screen 2 μg/mL, % growth, replicate 2
[20] = P. falciparum, 72 h, parasite screen 2 μg/mL, % growth, replicate 1
[21] = P. falciparum, 72 h, parasite screen 2 μg/mL, % growth, replicate 2
[22] = T. gondii, parasite screen 2 μg/mL, replicate 1
[23] = T. gondii, parasite screen 2 μg/mL, replicate 2
[24] = Toxoplasma gondii, T. gondii, parasite screen 2 μg/mL, replicate 1, read-out: Tg_72h_%Growth_Rep1
[25] = Toxoplasma gondii, T. gondii, parasite screen 2 μg/mL, replicate 2, read-out: Tg_72h_%Growth_Rep2

Compound: COC1=C2C[C@@H](C)C[C@H](OC)[C@H](O)[C@@H](C)/C=C(\C)[C@H](OC(N)=O)[C@@H](OC)/C=C\C=C(/C)C(=O)NC(=CC1=O)C2=O [Geldanamycin]
- activity at 2 µg/mL [1, 4]: 25.5%
- activity at 2 µg/mL [1, 5]: 11.8%
- activity at 2 µg/mL [2, 6]: 5.26%
- activity at 2 µg/mL [2, 7]: 2.63%
- percent parasite growth at 2 µg/mL [3, 8]: 24.8%
- percent parasite growth at 2 µg/mL [3, 9]: 24.3%

Compound: C=C(NC(=O)C(=C)NC(=O)c1ccc2c(n1)-c1coc(n1)C(=C)NC(=O)C(=C)NC(=O)c1nc(oc1C)C(=C)NC(=O)C(C(C)(C)O)NC(=O)C(=C)NC(=O)c1coc(n1)/C(=C/C)NC(=O)[C@H]([C@@H](C)O)NC(=O)c1csc-2n1)C(N)=O (some centres unmarked) [Geninthiocin]
- Pf_120h_%Growth_Rep1 [1, 10]: 87.82%
- Pf_120h_%Growth_Rep2 [1, 11]: 106.01%
- Pf_72h_%Growth_Rep1 [2, 12]: 87.80%
- Pf_72h_%Growth_Rep2 [2, 13]: 33.98%
- Tg_72h_%Growth_Rep1 [3, 14]: 124.28%
- Tg_72h_%Growth_Rep2 [3, 15]: 90.80%

Compound: O=c1c(-c2ccc(O)cc2)coc2cc(O)cc(O)c12 [Genistein]
- activity at 2 µg/mL [1, 4]: 89.5%
- activity at 2 µg/mL [1, 5]: 111%
- activity at 2 µg/mL [2, 6]: 88.5%
- activity at 2 µg/mL [2, 7]: 42.1%
- percent parasite growth at 2 µg/mL [3, 8]: 80.3%
- percent parasite growth at 2 µg/mL [3, 9]: 72.4%

Compound: CNC[C@@H]1CC[C@@H](N)[C@@H](O[C@H]2[C@H](O)[C@@H](O[C@H]3OC[C@](C)(O)[C@H](NC)[C@H]3O)[C@H](N)C[C@@H]2N)O1 [Gentamicin C2b]
- Pf_120h_%Growth_Rep1 [1, 10]: 7.99%
- Pf_120h_%Growth_Rep2 [1, 11]: 7.07%
- Pf_72h_%Growth_Rep1 [2, 12]: 6.39%
- Pf_72h_%Growth_Rep2 [2, 13]: 7.30%
- Tg_72h_%Growth_Rep1 [3, 14]: 152.97%
- Tg_72h_%Growth_Rep2 [3, 15]: 86.04%

Compound: CO[C@@H]1[C@@H](O[C@@H]2O[C@H](C)[C@@H](O[C@H]3C[C@@](C)(O)[C@@H](OC(=O)CC(C)C)[C@H](C)O3)[C@H](N(C)C)[C@H]2O)[C@@H](CC=O)C[C@@H](C)[C@@H](O)/C=C/C=C/C[C@@H](C)OC(=O)C[C@H]1OC(C)=O [Josamycin (Leucomycin A3), reference compound]
- 3) Fold change (72 h/120 h) [1]: 5.3
- activity at 2 µg/mL [1, 16]: 10.1%
- activity at 2 µg/mL [2, 17]: 53.5%
- Mean ([3]; T. gondii): 20.93
- Replicate 1 ([3]; T. gondii): 18.33
- Replicate 2 ([3]; T. gondii): 23.52

Compound: CCCC(=O)O[C@H]1[C@H](C)O[C@@H](O[C@H]2[C@H](N(C)C)[C@@H](O)[C@H](O[C@H]3[C@@H](CC=O)C[C@@H](C)[C@@H](O)/C=C/C=C/C[C@@H](C)OC(=O)C[C@@H](OC(C)=O)[C@@H]3OC)O[C@@H]2C)C[C@@]1(C)O [Leucomycin A4]
- 2) Growth (%) at 120 h ([1]; P. falciparum, 2 μg/mL, 120 h): 1.51%
- 3) Fold change (72 h/120 h) ([1]; P. falciparum, growth at 72 h / growth at 120 h, 2 μg/mL): 31.0
- 1) Growth (%) at 72 h ([2]; P. falciparum, 2 μg/mL, 72 h): 46.88%
- Mean ([3]; T. gondii): 23.43
- Replicate 1 ([3]; T. gondii): 19.43
- Replicate 2 ([3]; T. gondii): 27.43

Compound: CO[C@@H]1[C@@H](OC(N)=O)[C@@H](O)[C@H](Oc2ccc3c(O)c(NC(=O)c4ccc(O)c(CC=C(C)C)c4)c(=O)oc3c2C)OC1(C)C [Novobiocin, reference compound]
- 3) Fold change (72 h/120 h) [1]: 5.7
- activity at 2 µg/mL [1, 16]: 14.2%
- activity at 2 µg/mL [2, 17]: 81.4%
- Mean ([3]; T. gondii): 51.41
- Replicate 1 ([3]; T. gondii): 9.17
- Replicate 2 ([3]; T. gondii): 93.65

Compound: C=C[C@]1(C)C[C@@H](OC(=O)CO)[C@]2(C)[C@H](C)CC[C@]3(CCC(=O)[C@H]32)[C@@H](C)[C@@H]1O [Pleuromutilin]
- activity in 120 h dose-response assay against P. falciparum ([1]; 120 h): did not display any activity
- IC50 ([2]; Plasmodium falciparum, 3D7, 72 h treatment, mean ± S.D., n ≥ 3, read-out: IC50 (μM), P. falciparum): > 1 µM
- Screen (P. falciparum) ([2]; library screen at 2 μg/mL, 3D7, 72 h, DD from the 120 h timepoint): I, I
- IC50 ([3]; Toxoplasma gondii, RH strain, mean ± S.D., n ≥ 3, read-out: IC50 (μM), T. gondii (converted)): > 1 µM
- Screen (T. gondii) ([3]; library screen at 2 μg/mL, RH strain): I, I

Compound: COc1cc(C[C@H]2C(=O)OC[C@@H]2Cc2ccc3c(c2)OCO3)ccc1O [Pluviatolide]
- Pf_120h_%Growth_Rep1 [1, 18]: 90.86%
- Pf_120h_%Growth_Rep2 [1, 19]: 133.22%
- Pf_72h_%Growth_Rep1 [2, 20]: 81.43%
- Pf_72h_%Growth_Rep2 [2, 21]: 88.63%
- Tg_72h_%Growth_Rep1 [3, 22]: 140.42%
- Tg_72h_%Growth_Rep2 [3, 23]: 93.56%

Compound: CC[C@H](C)C[C@H](C)CCCCCCCCC(=O)N[C@H]1C[C@@H](O)[C@@H](O)NC(=O)[C@@H]2[C@@H](O)CCN2C(=O)[C@H]([C@H](O)CC(N)=O)NC(=O)[C@H]([C@H](O)[C@@H](O)c2ccc(O)cc2)NC(=O)[C@@H]2C[C@@H](O)CN2C(=O)[C@H]([C@@H](C)O)NC1=O [Pneumocandin B0] ({Tetradecanoyl(10R,12S-Me2)}-[Orn(4R-OH,5R-OH)]T[Hyp][hTyr(3S-OH,4S-OH)][Gln(3R-OH)][Pro(3S-OH)]; lactam 1-C)
- Pf_120h_%Growth_Rep1 [1, 18]: 81.62%
- Pf_120h_%Growth_Rep2 [1, 19]: 136.49%
- Pf_72h_%Growth_Rep1 [2, 20]: 84.80%
- Pf_72h_%Growth_Rep2 [2, 21]: 90.52%
- Tg_72h_%Growth_Rep1 [3, 22]: 104.00%
- Tg_72h_%Growth_Rep2 [3, 23]: 85.61%

Compound: CC1(C)CCCC2(C)c3cnncc3CCC12 (centres unmarked) [Polygodial pyridazine]
- Pf_120h_%Growth_Rep1 [1, 18]: 58.21%
- Pf_120h_%Growth_Rep2 [1, 19]: 140.85%
- Pf_72h_%Growth_Rep1 [2, 20]: 71.42%
- Pf_72h_%Growth_Rep2 [2, 21]: 85.26%
- Tg_72h_%Growth_Rep1 [3, 22]: 119.26%
- Tg_72h_%Growth_Rep2 [3, 23]: 96.17%

Compound: CC1(C)CCC[C@]2(C)[C@@H](C=O)C(C=O)=CC[C@@H]12 [Polygodial]
- activity at 2 µg/mL ([1]; Plasmodium falciparum, 3D7, P. falciparum, 120 h, parasite screen 2 μg/mL, % growth, replicate 1, read-out: Pf_120h_%Growth_Rep1): 6.02%
- activity at 2 µg/mL ([1]; Plasmodium falciparum, 3D7, P. falciparum, 120 h, parasite screen 2 μg/mL, % growth, replicate 2, read-out: Pf_120h_%Growth_Rep2): 28.5%
- activity at 2 µg/mL ([2]; Plasmodium falciparum, 3D7, P. falciparum, 72 h, parasite screen 2 μg/mL, % growth, replicate 1, read-out: Pf_72h_%Growth_Rep1): 1.12%
- activity at 2 µg/mL ([2]; Plasmodium falciparum, 3D7, P. falciparum, 72 h, parasite screen 2 μg/mL, % growth, replicate 2, read-out: Pf_72h_%Growth_Rep2): -3.71%
- percent parasite growth at 2 µg/mL [3, 24]: 101%
- percent parasite growth at 2 µg/mL [3, 25]: 101%

Compound: C[C@@]12CCC[C@@]34CCC[C@@H](C=C[C@H]1CC3)N42 [Porantherine]
- Pf_120h_%Growth_Rep1 [1, 18]: 101.33%
- Pf_120h_%Growth_Rep2 [1, 19]: 98.35%
- Pf_72h_%Growth_Rep1 [2, 20]: 85.43%
- Pf_72h_%Growth_Rep2 [2, 21]: 115.67%
- Tg_72h_%Growth_Rep1 [3, 22]: 90.85%
- Tg_72h_%Growth_Rep2 [3, 23]: 74.43%

Compound: CC[C@H](C)C(=O)O[C@H]1C[C@H](O)C=C2C=C[C@H](C)[C@H](CC[C@@H](O)C[C@@H](O)CC(=O)O)[C@H]21 [Pravastatin sodium]
- activity at 2 µg/mL ([1]; Plasmodium falciparum, 3D7, 120 h, P. falciparum, 120 h, parasite screen 2 μg/mL, % growth, replicate 1, read-out: Pf_120h_%Growth_Rep1): 96.8%
- activity at 2 µg/mL ([1]; Plasmodium falciparum, 3D7, 120 h, P. falciparum, 120 h, parasite screen 2 μg/mL, % growth, replicate 2, read-out: Pf_120h_%Growth_Rep2): 111%
- activity at 2 µg/mL ([2]; Plasmodium falciparum, 3D7, 72 h, P. falciparum, 72 h, parasite screen 2 μg/mL, % growth, replicate 1, read-out: Pf_72h_%Growth_Rep1): 83.8%
- activity at 2 µg/mL ([2]; Plasmodium falciparum, 3D7, 72 h, P. falciparum, 72 h, parasite screen 2 μg/mL, % growth, replicate 2, read-out: Pf_72h_%Growth_Rep2): 99.3%
- percent parasite growth at 2 µg/mL [3, 24]: 92.2%
- percent parasite growth at 2 µg/mL [3, 25]: 94.6%
